From patent US9566290B2, “Boron-containing small molecules” (Anacor Pharmaceuticals, Inc., priority 2005, dated 2017)

Row | SMILES | melting point [°C]
1 | COc1ccc2c(c1)COB2O [C7, 5-methoxybenzo[c][1,2]oxaborol-1(3H)-ol] | 102 to 104
2 | Cc1ccc2c(c1)COB2O [C8, 5-methylbenzo[c][1,2]oxaborol-1(3H)-ol] | 124 to 128
3 | OB1OCc2ccc3ccccc3c21 [C11, naphtho[1,2-c][1,2]oxaborol-1(3H)-ol] | 139 to 143
4 | OB1OCc2ccc(F)cc21 [C13, 6-fluorobenzo[c][1,2]oxaborol-1(3H)-ol] | 110 to 117.5
5 | N#Cc1cccc(Oc2ccc3c(c2)B(O)OC3)c1 [C19, 3-(1-hydroxy-1,3-dihydrobenzo[c][1,2]oxaborol-6-yloxy)benzonitrile] | 146 to 149
6 | OB1OCc2ccc(Oc3ccc(Cl)cc3)cc21 [C20, 6-(4-chlorophenoxy)benzo[c][1,2]oxaborol-1(3H)-ol] | 119 to 130
7 | OB1OCc2ccc(Oc3ccccc3)cc21 [C21, 6-phenoxybenzo[c][1,2]oxaborol-1(3H)-ol] | 95 to 99
8 | OB1OCc2ccc(Sc3ccccc3)cc21 [C28, 6-(phenylthio)benzo[c][1,2]oxaborol-1(3H)-ol] | 121 to 124
9 | OB1OCc2ccc(Oc3ccc(OC(F)(F)F)cc3)cc21 [C29, 6-(4-(trifluoromethoxy)phenoxy)benzo[c][1,2]oxaborol-1(3H)-ol] | 97 to 101
10 | CN(c1ccc2c(c1)COB2O)S(=O)(=O)c1ccccc1 [C30, N-(1-hydroxy-1,3-dihydrobenzo[c][1,2]oxaborol-5-yl)-N-methylbenzenesulfonamide] | 85 to 95
11 | COc1ccc(Oc2ccc3c(c2)B(O)OC3)cc1 [C31, 6-(4-methoxyphenoxy)benzo[c][1,2]oxaborol-1(3H)-ol] | 126 to 129
12 | COc1ccc(Sc2ccc3c(c2)B(O)OC3)cc1 [C32, 6-(4-methoxyphenylthio)benzo[c][1,2]oxaborol-1(3H)-ol] | 95 to 100
13 | COc1ccc(S(=O)(=O)c2ccc3c(c2)B(O)OC3)cc1 [C33, 6-(4-methoxyphenylsulfonyl)benzo[c][1,2]oxaborol-1(3H)-ol] | 180 to 192
14 | CCOC(=O)COc1ccc2c(c1)COB2O [C41, Ethyl 2-(1-hydroxy-1,3-dihydrobenzo[c][1,2]oxaborol-5-yloxy)acetate] | 134 to 137
15 | O=C(O)COc1ccc2c(c1)COB2O [C42, 2-(1-hydroxy-1,3-dihydrobenzo[c][1,2]oxaborol-5-yloxy)acetic acid] | 163 to 166
16 | OB1OCc2ccc(Sc3cccs3)cc21 [C43, 6-(thiophen-2-ylthio)benzo[c][1,2]oxaborol-1(3H)-ol] | 99 to 104
17 | OB1OCc2ccc(Sc3ccc(F)cc3)cc21 [C44, 6-(4-fluorophenylthio)benzo[c][1,2]oxaborol-1(3H)-ol] | 135 to 138
18 | CCCCC(=O)c1cccc(COc2ccc3c(c2)COB3O)c1 [C45, 1-(3-((1-hydroxy-1,3-dihydrobenzo[c][1,2]oxaborol-5-yloxy)methyl)phenyl)pentan-1-one] | 96 to 98
19 | O=C(COc1ccc2c(c1)COB2O)N1CCCCC1 [C46, 2-(1-hydroxy-1,3-dihydrobenzo[c][1,2]oxaborol-5-yloxy)-1-(piperidin-1-yl)ethanone] | 158 to 163
20 | O=C(COc1ccc2c(c1)COB2O)N1CCN(c2ncccn2)CC1 [C47, 2-(1-hydroxy-1,3-dihydrobenzo[c][1,2]oxaborol-5-yloxy)-1-(4-(pyrimidin-2-yl)piperazin-1-yl)ethanone] | 190 to 195
21 | OB1OCc2ccc(N3CCN(c4ccccn4)CC3)cc21 [C48, 6-(4-(pyridin-2-yl)piperazin-1-yl)benzo[c][1,2]oxaborol-1(3H)-ol] | 135 to 138
22 | CN(C)c1ccc2c(c1)B(O)OC2 [C51, 6-(dimethylamino)benzo[c][1,2]oxaborol-(3H)-ol] | 120 to 123
23 | O=C(Nc1ccc2c(c1)B(O)OC2)c1ccccc1 [C52, N-(1-hydroxy-1,3-dihydrobenzo[c][1,2]oxaborol-6-yl)benzamide] | 186 to 193
24 | OB1OCc2ccc(N3CCN(c4ccccc4)CC3)cc21 [C53, 6-(4-phenylpiperazin-1-yl)benzo[c][1,2]oxaborol-1(3H)-ol] | 159 to 161
25 | OB1OCc2ccc(-n3ccc4ccccc43)cc21 [C55, 6-(1H-indol-1-yl)benzo[c][1,2]oxaborol-1(3H)-ol] | 135 to 140
26 | OB1OCc2ccc(N3CCOCC3)cc21 [C56, 6-morpholinobenzo[c][1,2]oxaborol-1(3H)-ol] | 128 to 132
27 | O=[N+]([O-])c1cc2c(cc1F)COB2O [C58, 5-fluoro-6-nitrobenzo[c][1,2]oxaborol-1(3H)-ol] | 162 to 167
28 | OCc1cc2c(cc1Br)COB2O [C59, 5-bromo-6-(hydroxymethyl)benzo[c][1,2]oxaborol-1(3H)-ol] | > 257

Row | SMILES | melting point [°C]
29 | OB1OCc2cc3c(cc21)COB3O [C60, 3,7-dihydro-1,5-dihydroxy-1H,3H-Benzo[2-c: 4,5-c′]bis[1,2]oxaborole] | > 250
30 | O=S(=O)(Nc1ccc2c(c1)B(O)OC2)c1ccccc1 [C62, N-(1-hydroxy-1,3-dihydrobenzo[c][1,2]oxaborol-6-yl)benzenesulfonamide] | 175 to 184
31 | CC(=O)Nc1ccc2c(c1)B(O)OC2 [C63, N-(1-hydroxy-1,3-dihydrobenzo[c][1,2]oxaborol-6-yl)acetamide] | 176 to 185
32 | OCc1cccc2c1B(O)OC2 [C64, 7-(hydroxymethyl)benzo[c][1,2]oxaborol-1(3H)-ol] | 241 to 250
33 | Cc1cccc2c1B(O)OC2 [C65, 7-methylbenzo[c][1,2]oxaborol-1(3H)-ol] | 107 to 111
34 | OB1OCc2ccc(-n3cc(Sc4ccccc4)c4ccccc43)cc21 [C66, 6-(3-(phenylthio)-1H-indol-1-yl)benzo[c][1,2]oxaborol-1(3H)-ol] | 159 to 163
35 | N#CCCSc1cn(-c2ccc3c(c2)B(O)OC3)c2ccccc12 [C67, 3-(1-(1-hydroxy-1,3-dihydrobenzo[c][1,2]oxaborol-6-yl)-1H-indol-3-ylthio)propanenitrile] | 135 to 141
36 | COc1ccc2c(ccn2-c2ccc3c(c2)B(O)OC3)c1 [C68, 6-(5-methoxy-1H-indol-1-yl)benzo[c][1,2]oxaborol-1(3H)-ol] | 120 to 124
37 | OB1OCc2cc3c(cc21)OCO3 [C69, 5,6-methylenedioxybenzo[c][1,2]oxaborol-1(3H)-ol] | 185 to 189
38 | Nc1cc2c(cc1F)COB2O [C70, 6-amino-5-fluorobenzo[c][1,2]oxaborol-1(3H)-ol] | 142 to 145
39 | OB1OCc2cc(F)c(NCc3ccccc3)cc21 [C71, 6-(benzylamino)-5-fluorobenzo[c][1,2]oxaborol-1(3H)-ol] | 159 to 164
40 | COc1ccc2c(c1)c(Sc1ccccc1)cn2-c1ccc2c(c1)B(O)OC2 [C72, 6-(5-methoxy-3-(phenylthio)-1H-indol-1-yl)benzo[c][1,2]oxaborol-1(3H)-ol] | 135 to 141
41 | COc1ccc2c(c1)c(SCCC#N)cn2-c1ccc2c(c1)B(O)OC2 [C73, 3-(1-(1-hydroxy-1,3-dihydrobenzo[c][1,2]oxaborol-6-yl)-5-methoxy-1H-indol-3-ylthio)propanenitrile] | 149 to 154
42 | N#Cc1ccc(Oc2cccc3c2B(O)OC3)cc1 [C74, 4-(1-hydroxy-1,3-dihydrobenzo[c][1,2]oxaborol-7-yloxy)benzonitrile] | 148 to 153
43 | OB1OCc2ccc(-n3ccc4cc(Cl)ccc43)cc21 [C75, 6-(5-chloro-1H-indol-1-yl)benzo[c][1,2]oxaborol-1(3H)-ol] | 149 to 154
44 | N#CCCSc1cn(-c2ccc3c(c2)B(O)OC3)c2ccc(Cl)cc12 [C76, 3-(5-chloro-1-(1-hydroxy-1,3-dihydrobenzo[c][1,2]oxaborol-6-yl)-1H-indol-3-ylthio)propanenitrile] | > 225
45 | OB1OCc2ccc(NCc3ccccc3)cc21 [C77, 6-(benzylamino)benzo[c][1,2]oxaborol-1(3H)-ol] | 126 to 133
46 | OB1OCc2ccc(N(Cc3ccccc3)Cc3ccccc3)cc21 [C78, 6-(dibenzylamino)benzo[c][1,2]oxaborol-1(3H)-ol] | 115 to 123
47 | OB1OCc2ccc(-n3cc(Sc4ccccc4)c4cc(Cl)ccc43)cc21 [C80, 6-(5-chloro-3-(phenylthio)-1H-indol-1-yl)benzo[c][1,2]oxaborol-1(3H)-ol] | 145 to 151
48 | OB1OCc2cccc(F)c21 [C86, 7-fluorobenzo[c][1,2]oxaborol-1(3H)-ol] | 120 to 124
49 | OB1OCc2ccc(Oc3ccc(C(F)(F)F)cc3)cc21 [C87, 6-(4-(trifluoromethyl)phenoxy)benzo[c][1,2]oxaborol-1(3H)-ol] | 98 to 105
50 | OB1OCc2ccc(Sc3ccc(Cl)cc3)cc21 [C88, 6-(4-chlorophenylthio)benzo[c][1,2]oxaborol-1(3H)-ol] | 157 to 161
51 | [O-][S+](c1ccc(Cl)cc1)c1ccc2c(c1)B(O)OC2 (stereo not shown) [C89, 6-(4-chlorophenylsulfinyl)benzo[c][1,2]oxaborol-1(3H)-ol] | 154 to 161
52 | O=S(=O)(c1ccc(Cl)cc1)c1ccc2c(c1)B(O)OC2 [C90, 6-(4-chlorophenylsulfonyl)benzo[c][1,2]oxaborol-1(3H)-ol] | 157 to 163
53 | O=S(=O)(c1ccccc1)N(c1ccc2c(c1)COB2O)S(=O)(=O)c1ccccc1 [C91, N-(1-hydroxy-1,3-dihydrobenzo[c][1,2]oxaborol-5-yl)-N-(phenylsulfonyl)benzenesulfonamide] | 142 to 152
54 | OB1OCc2ccc(Sc3ccc(C(F)(F)F)cc3)cc21 [C92, 6-(4-(trifluoromethyl)phenylthio)benzo[c][1,2]oxaborol-1(3H)-ol] | 111 to 113
55 | [O-][S+](c1ccc(C(F)(F)F)cc1)c1ccc2c(c1)B(O)OC2 (stereo not shown) [C93, 6-(4-(trifluoromethyl)phenylsulfinyl)benzo[c][1,2]oxaborol-1(3H)-ol] | 79 to 88
